# Columns and labels:
# [1] = system: Neuro-2a cells; experiment: Intracellular ROS level, DCFH-DA probe, 6-OHDA-treated cells; format: cell-based, murine; conditions: 25 µM 6-OHDA 30 min, no peptide
# Experimental: (§1) Neuro-2a neuroblastoma cells (ATCC® CCL-131™) were obtained from American Type Culture Collection (Manassas, VA, USA). The cells were cultivated in DMEM medium (BioloT, St. Petersburg, Russia) supplemented with 10% of fetal bovine serum (BioloT, Russia) and 1% penicillin/streptomycin (BioloT, St. Petersburg, Russia) at 37 °C and 5% CO2. Initially, cells were incubated in cultural flasks until sub-confluent (~80%). For testing, Neuro-2a cells were seeded in 96-well plates and experiments were started after 24 h.
# The level of intracellular ROS was measured using the ROS sensitive dye, 2,7-dichloro-fluorescein diacetate (DCFH-DA), as a probe. In brief, Neuro-2a cells were seeded in 96-well plates at 1 × 10^4 cells/well, culturing in the presence or absence of various concentrations of tested peptides for 1 h, and then 6-OHDA (25 µM) was added in each well for 30 min at 37 °C with 5% CO2. […] The fluorescence of 2,7-dichlorofluorescein (DCF) was detected with PHERAstar FS fluorescent plate reader (BMG Labtech, Ortenberg, Germany) at λex = 485 nm and λem = 518 nm. […] The cytoprotective effect of peptides and the increase in cell viability under their action was calculated as a percentage, taking the cell viability treated with 6-OHDA as 100%.
# [2] = system: Neuro-2a cells; experiment: 6-Hydroxydopamine-induced cytotoxicity (neuroprotection), MTT; format: cell-based, murine; conditions: 25 µM 6-OHDA 24 h, no peptide; versus control
# Experimental: as §1
# Neuro-2a cells were seeded at 1 × 10^4 cells/well in 96-well plates for studying of neuroprotective activity of peptides. The tested peptides were added to the cell monolayer and cells were incubated at 37 °C for 1 h. Then, the cells were exposed to 6-OHDA (Sigma-Aldrich, St. Louis, MO, USA) at 25 µM for 24 h at 37 °C with 5% CO2. Thereafter, the medium was replaced with clean serum-free medium, and the number of viable cells was determined by MTT assay. Neuro-2a cells were cultured without test compound or neurotoxins as the control group. Results were expressed in percentage of control as the mean ± SEM of three independent replicates.
# [3] = DPPH radical scavenging cell free assay; conditions: 10 µM compound, 30 min, absorbance 520 nm, versus MeOH control, mean ± SEM of three independent replicates
# Experimental: The 2,2-diphenyl-1-picryl-hydrazyl-hydrate (DPPH) radical scavenging activity was tested as described previously. The compound solutions (120 µL) were dispensed into wells of a 96-well microplate. The DPPH (Sigma-Aldrich, Germany) was dissolved in MeOH at concentration of 7.5 µM and the solution (30 µL) was added to each well. The concentrations of tested compounds in the mixtures were 10 µM. The mixtures were shaken and left for 30 min. The absorbance of the resulting solutions was measured at λ = 520 nm with a MultiscanFC plate reader (Thermo Fisher Scientific, Waltham, MA, USA). The scavenging of the DPPH radical in comparison with control (MeOH) (%) was calculated for each compound. Ascorbic acid at 10 µM was used as positive control.
Compound,ROS level in 6-OHDA-treated cells [1],Viability of Neuro-2a cells treated with 6-OHDA [2],Scavenging of DPPH Radicals [3]
"NCCc1cc(O)c(O)cc1O [Peptide 6-OHDA, 6-hydroxydopamine]",up to 130 % to the control level,42.6%,–
O=C1O[C@H]([C@@H](O)CO)C(O)=C1O [Ascorbic acid],–,–,33.8 ± 2.4%
